Here are results for four molecules from ChEMBL document CHEMBL5390241, “Natural Enfumafungin Analogues from Hormonema carpetanum and Their Antifungal Activities” (2023).

Common to all, as to assay type: functional
The subject of assay [1] is Candida albicans. Briefly: Antifungal activity against Candida albicans SC5314 assessed as inhibition in growth incubated for 48 hrs by broth microdilution method. On the technique in general: Dilution methods test growth across graded concentrations, often in twofold steps.
Assay [2] has as its system Candida albicans. Put plainly: Antifungal activity against Candida albicans 10231 assessed as inhibition in growth incubated for 48 hrs by broth microdilution method.
A further assay has as its system Candida tropicalis. Put plainly: Antifungal activity against Candida tropicalis 8915 assessed as inhibition in growth incubated for 48 hrs by broth microdilution method.
For the next assay, the system named is Nakaseomyces glabratus. Briefly: Antifungal activity against Candida glabrata 537 assessed as inhibition in growth incubated for 48 hrs by broth microdilution method.
In assay [3] the test system is [Candida] auris. Briefly: Antifungal activity against Candida auris 919 assessed as inhibition in growth incubated for 48 hrs by broth microdilution method. The note with it: Candidozyma auris.
Assay [4] relates to [Candida] auris. Briefly: Antifungal activity against Candida auris 918 assessed as inhibition in growth incubated for 48 hrs by broth microdilution method. The conditions noted are these: Candidozyma auris.
A further assay relates to Candida parapsilosis. Put plainly: Antifungal activity against Candida parapsilosis 22019 assessed as inhibition in growth incubated for 48 hrs by broth microdilution method. The note with it: Lodderomyces parapsilosis.
Assay [5] has as its system Cryptococcus neoformans. Briefly: Antifungal activity against Cryptococcus neoformans 32609 assessed as inhibition in growth incubated for 48 hrs by broth microdilution method.
The subject of assay [6] is Cryptococcus neoformans. Briefly: Antifungal activity against Cryptococcus neoformans H99 assessed as inhibition in growth incubated for 48 hrs by broth microdilution method.
The subject of the next assay is Pichia kudriavzevii. Briefly: Antifungal activity against candida krusei 4996 assessed as inhibition in growth incubated for 48 hrs by broth microdilution method.

The term MIC80 denotes an inhibitory concentration at the 80% level, which refers to growth in some studies and to a panel of isolates in others.

≈ marks a conversion by molar mass, not a printed value.

With `CC(=O)O[C@@H]1C[C@]23C4=CC[C@@]5(C)[C@@H]6C(=O)C[C@H](C(C)C)[C@@]6(C)CC[C@]5(C)[C@H]4CC[C@H]2[C@@](C)(COC3O)[C@H]1O[C@@H]1O[C@H](CO)[C@@H](O)[C@H](O)[C@H]1O` (stereo not given in full), the MIC80 in the assay with Candida albicans [1] is 64 µg/mL (≈ 92.6 µM); in the assay on Candida albicans [2], 32 µg/mL (≈ 46.3 µM); with Candida tropicalis, 64 µg/mL (≈ 92.6 µM); in the assay with Nakaseomyces glabratus, 16 µg/mL (≈ 23.2 µM); in assay [Candida] auris [3], > 64 µg/mL; in [Candida] auris [4], > 64 µg/mL. Moreover, the MIC80 with Candida parapsilosis was > 64 µg/mL; in the assay on Cryptococcus neoformans [5], 64 µg/mL (≈ 92.6 µM); in the assay on Cryptococcus neoformans [6], 32 µg/mL (≈ 46.3 µM); in the assay with Pichia kudriavzevii it was 64 µg/mL (≈ 92.6 µM).

Regarding `CC(C)[C@@H](C)[C@@]1(C)CC[C@]2(C)[C@H]3CC[C@H]4[C@@]5(C)COC(O)[C@@]4(C[C@@H](O)[C@@H]5O[C@@H]4O[C@H](CO)[C@@H](O)[C@H](O)[C@H]4O)C3=CC[C@@]2(C)[C@@H]1C(=O)O` (stereo not given in full), the MIC80 was > 64 µg/mL with Candida albicans [1]; > 64 µg/mL with Candida albicans [2]; > 64 µg/mL in the assay with Candida tropicalis; 32 µg/mL (≈ 48 µM) in the assay with Nakaseomyces glabratus; > 64 µg/mL in [Candida] auris [3]; > 64 µg/mL in assay [Candida] auris [4]. Further, the MIC80 in the assay with Candida parapsilosis is > 64 µg/mL; in the assay on Cryptococcus neoformans [5] it was > 64 µg/mL; in the assay with Cryptococcus neoformans [6], > 64 µg/mL; in the assay with Pichia kudriavzevii, 64 µg/mL (≈ 96 µM).

For `CC(=O)O[C@@H]1C[C@]23C4=CC[C@@]5(C)[C@H](C(=O)O)[C@@](C)([C@H](C)C(C)C)CC[C@]5(C)[C@H]4CC[C@H]2[C@@](C)(COC3O)[C@H]1O[C@@H]1O[C@H](CO)[C@@H](O)[C@H](O)[C@H]1O` (stereo not given in full) [ENFUMAFUNGIN], the MIC80 with Candida albicans [1] stood at 4 µg/mL (≈ 5.64 µM); in the assay on Candida albicans [2] it was 4 µg/mL (≈ 5.64 µM); with Candida tropicalis, 4 µg/mL (≈ 5.64 µM); in the assay with Nakaseomyces glabratus it was 8 µg/mL (≈ 11.3 µM); in assay [Candida] auris [3], 64 µg/mL (≈ 90.3 µM); in [Candida] auris [4], 64 µg/mL (≈ 90.3 µM). Also, the MIC80 is 8 µg/mL (≈ 11.3 µM) in the assay with Candida parapsilosis, 8 µg/mL (≈ 11.3 µM) in the assay with Cryptococcus neoformans [5], 4 µg/mL (≈ 5.64 µM) in the assay on Cryptococcus neoformans [6] and 8 µg/mL (≈ 11.3 µM) in the assay with Pichia kudriavzevii.

For the molecule `OC(Cn1cncn1)(Cn1cncn1)c1ccc(F)cc1F` [FLUCONAZOLE], the MIC80 in the assay with Candida albicans [1] was 1 µg/mL (≈ 3.27 µM); in the assay with Candida albicans [2], > 64 µg/mL; in the assay on Candida tropicalis, > 64 µg/mL; with Nakaseomyces glabratus, 1 µg/mL (≈ 3.27 µM); in [Candida] auris [3], > 64 µg/mL; in [Candida] auris [4] it was > 64 µg/mL. The MIC80 in the assay on Candida parapsilosis was 4 µg/mL (≈ 13.1 µM); in the assay with Cryptococcus neoformans [5], 1 µg/mL (≈ 3.27 µM); in the assay with Cryptococcus neoformans [6], > 64 µg/mL; in the assay with Pichia kudriavzevii it was > 64 µg/mL.
